From publication PMC10397409, “The action of physiological and synthetic steroids on the calcium channel CatSper in human sperm” (Frontiers in Cell and Developmental Biology, 2023)
Values joined by “and” are separate entries in the source; they are usually repeats but may differ in a detail not shown here. Equal entries are not always repeated. Where two headings read alike, the source gives them in different places.

Key:
[1] = molecular target: T1, CatSper (Homo sapiens, UniProt Q7RTX7+Q86XQ3+Q8NEC5+Q96P56); experiment: Steroid-induced increase in [Ca2+]i in human sperm (Fluo-4 HTS assay, screen 1 activators); assay type: cell-based; details: for Emax: read-out: Max amplitude (%) (± SD)
T1 construct: Motile spermatozoa were selected by a ‘swim-up’ procedure; endogenous in cells; host or cells: motile human spermatozoa (swim-up) from healthy donors
Procedure: (§1) Briefly, motile spermatozoa were selected by swim-up and labeled with the fluorescent calcium indicator Fluo-4 a.m. to image changes in [Ca^2+]i. After centrifugation to remove excess dye, Fluo-4 AM loaded cells were distributed in a 384-wells plate to obtain ∼125,000 cells/well. After measuring basal fluorescence, a first injection of compounds was performed in order to evaluate their effect on [Ca^2+]i alone. This first screen is therefore considered as a screen to search for ‘activators’. Fluorescence was recorded for 12 min during which sperm cells were continuously exposed to compounds. P4 or PGE1 were then added in the same wells to evaluate whether the tested compounds can reduce the ligand-induced activation of CatSper. This second screen was therefore considered to be a search for CatSper ‘inhibitors’.
Human semen samples were collected from healthy donors by masturbation after a recommended sexual abstinence period of minimum 2 days. Semen samples were allowed to liquefy at 37°C for 15–30 min. […] Motile sperm were allowed to swim at 37°C for 1 hour. The supernatant was collected in 15 mL Falcon tubes and washed twice by centrifugation at 700 x g for 20 min. Sperm were supplemented with 3 mg/mL HSA.
20 μL of cells (corresponding to ∼125,000 cells) loaded with Fluo-4 a.m. were dispensed in a 384-wells plate (Corning, NY, United States) to allow fluorescence measurement. The dye was excited at 480 nm, and emission was recorded at 530 nm. The change in [Ca^2+]i was assessed simultaneously in all wells using a Functional Drug Screening System (FDSS/μCELL) (Hamamatsu Phototonics K.K., Yokohama, Japan) at 37°C. Basal fluorescence was first measured for 30 s. […] P4 and PGE1 were tested at a near-saturating concentration in the HTS in order to evaluate a potential additive or synergistic effect induced by the compounds. […] For alkalization-induced Ca^2+ measurement, NH4Cl was used as a positive control at a final concentration of 10 mM. […] The Prestwick library was tested in technical duplicate. Ca^2+ response curves were normalized using the following formula F−F0/F0×100 , where F 0 is the average of the basal fluorescence prior to the addition of the compound of interest and F corresponds to the fluorescence value at each time point. The ∆F/F0 of the vehicle control (DMSO) was subtracted from all the other values to adjust for dilution and pipetting artifacts. The values of all compounds were normalized to their respective controls.
Data are shown as mean ± standard deviation (SD) with “n” referring to the number of independent experiments performed using sperm samples from ≥3 different donors. Statistical analysis and fitting of dose-response relations were performed using GraphPad Prism 8.1.1 (Prism, La Jolla, United States). To generate sigmoidal curves, the concentrations were converted to their respective log values, and the data were normalized using the following formula: 100⋅x/Fmax , where Fmax is the maximum value of the positive control. A four-parameter Hill equation with a variable Hill coefficient was fitted to generate the EC02, EC50, and IC50. Statistical significance between control and treated conditions was evaluated using a one-way analysis of variance (ANOVA), followed by Dunnett´s test. A p-value <0.05 was considered significant.

[2] = molecular target: T1, CatSper; experiment: Inhibition of P4-induced Ca2+ influx in human sperm (screen 2 inhibitors); assay type: cell-based
Procedure: as §1
Human semen samples were collected from healthy donors by masturbation after a recommended sexual abstinence period of minimum 2 days. Semen samples were allowed to liquefy at 37°C for 15–30 min. Motile spermatozoa were selected by a ‘swim-up’ procedure as previously described ([Strünker et al., 2011]). Briefly, 1 mL of semen was deposited in a 45°-inclined 50 mL Falcon tube with 4 mL of Human Tubular Fluid (HTF) medium containing: 93.8 mM NaCl, 4.7 mM KCl, 0.2 mM MgSO4, 0.37 mM KH2PO4, 2.04 mM CaCl2, 20.98 mM HEPES, 2.78 mM glucose, 21.4 mM Na-lactate, 4 mM NaHCO3, 0.33 mM Na-pyruvate, and the pH was adjusted to 7.35. Motile sperm were allowed to swim at 37°C for 1 hour. The supernatant was collected in 15 mL Falcon tubes and washed twice by centrifugation at 700 x g for 20 min. Sperm were supplemented with 3 mg/mL HSA. Written informed consent was obtained from all donors prior to donation and approved by the Cantonal Ethics Committee of the State of Geneva (CCER #14-147).
Cells were loaded with the fluorescent Ca^2+ indicator Fluo-4 AM at a final concentration of 2.5 µM for 30 min at 37°C. Excess dye was washed via centrifugation at 700 x g for 20 min and sperm were resuspended in HTF medium to obtain a final concentration of 6.25 x 10^6 cells/mL. 20 μL of cells (corresponding to ∼125,000 cells) loaded with Fluo-4 a.m. were dispensed in a 384-wells plate (Corning, NY, United States) to allow fluorescence measurement. The dye was excited at 480 nm, and emission was recorded at 530 nm. The change in [Ca^2+]i was assessed simultaneously in all wells using a Functional Drug Screening System (FDSS/μCELL) (Hamamatsu Phototonics K.K., Yokohama, Japan) at 37°C. Basal fluorescence was first measured for 30 s. […] P4 and PGE1 were tested at a near-saturating concentration in the HTS in order to evaluate a potential additive or synergistic effect induced by the compounds. Non-specific CatSper inhibitor MDL 12330A was used as a negative control at final concentration of 20 µM while DMSO was used as a vehicle control. For alkalization-induced Ca^2+ measurement, NH4Cl was used as a positive control at a final concentration of 10 mM. Fluorescence was recorded for a total of 16.5 min: 30 s before injection, 12 min after the first injection of the tested compounds, and 4 min after the second injection of either P4 or PGE1. The Prestwick library was tested in technical duplicate. Ca^2+ response curves were normalized using the following formula F−F0/F0×100 , where F 0 is the average of the basal fluorescence prior to the addition of the compound of interest and F corresponds to the fluorescence value at each time point. The ∆F/F0 of the vehicle control (DMSO) was subtracted from all the other values to adjust for dilution and pipetting artifacts. The values of all compounds were normalized to their respective controls.

[3] = Mean EC50 µM (±SD), pooled from 3 independent experiments
[4] = Mean IC50 (P4) µM (±SD), P4-induced response, pooled from 3 independent experiments
[5] = maximal amplitude of steroid-induced [Ca2+]i increase, relative to P4, 3 independent experiments
[6] = pooled from 3 independent experiments, read-out: Mean EC50 µM (±SD)
[7] = P4-induced response, pooled from 3 independent experiments, read-out: Mean IC50 (P4) µM (±SD)

Row | Compound | Emax [1] | Max P4 inhibition (%) (± SD) ([2]; 3 independent experiments) | Emax [1, 5] | EC50 [1, 6] | IC50 [2, 7] | other results
1 | C[C@]12CCC(=O)C(O)=C1CC[C@@H]1[C@@H]2CC[C@]2(C)C(=O)CC[C@@H]12 [formestane] | 71% | 70 (±8) % | – | – | – | EC50 [1, 3]: 0.353 µM; IC50 [2, 4]: 1.22 µM
2 | CC12CCC(O)CC1CCC1C2CCC2(C)C1CCC2(C)O (stereo not shown) [S64] | 65% | 55 (±1) % | – | – | – | EC50 [1, 3]: 0.265 µM; IC50 [2, 4]: 0.682 µM
3 | CC(=O)C1CCC2C3CC[C@H]4CC(=O)CC[C@]4(C)C3CC[C@]12C (stereo partly shown) [S46] | 141% | 90 (±6) % | – | – | – | EC50 ([1]; EC50, increase in [Ca2+]i in human sperm): 0.032 µM and 0.073 µM; IC50 ([2]; IC50, decrease of response to P4): 0.046 µM and 0.138 µM
4 | CC(=O)O[C@]1(C(C)=O)CC[C@H]2[C@@H]3C=C(C)C4=CC(=O)CC[C@]4(C)[C@H]3CC[C@@]21C [megestrol acetate] | – | -4 (±11) % | 3% | – | – | –
5 | C[C@]12CC[C@@H]3c4ccc(O)cc4CC[C@H]3[C@@H]1CCC2=O [estrone] | – | 67 (±2) % | 49% | – | – | EC50 [1, 3]: 0.267 µM; IC50 [2, 4]: 0.56 µM
6 | C#C[C@]1(O)CC[C@H]2[C@@H]3CCC4=CC(=O)CC[C@@H]4[C@H]3CC[C@@]21C [norethindrone] | 28% | – | – | 6.05 µM | 4.35 µM | Max P4 inhibition (%) (± SD) [2]: 22 (±5) %
7 | C[C@]12CC[C@H]3C(=CCc4cc(O)ccc43)[C@@H]1CCC2=O [equilin] | 62% | – | – | – | – | EC50 [1]: 0.999 µM; IC50 [2]: 1.85 µM; Max P4 inhibition (%) (± SD) [2]: 50 (±11) %
8 | C[C@]12CC[C@H]3[C@@H](CCC4=CC(=O)CC[C@@H]43)[C@@H]1CC[C@@H]2O [Nandrolone] | 98% | 85 (±1) % | – | – | – | EC02 compared with reported maximum concentration in blood serum [1]: EC02 below the reported maximum concentration found in blood serum; EC50 ([1]; EC50 (±SD), increase in [Ca2+]i, dose-response 90 µM to 0.3 nM): 0.306 µM; increase in [Ca2+]i ([1]; at low concentrations in the nanomolar range): 30%; IC50 ([2]; IC50 (±SD), inhibition of P4-induced Ca2+ response, dose-response 90 µM to 0.3 nM): 0.711 µM; IC50 [2, 4]: 0.729 µM
9 | C[C@]12CC[C@@H]3c4ccc(O)cc4C[C@@H](CCCCCCCCC[S+]([O-])CCCC(F)(F)C(F)(F)F)[C@H]3[C@@H]1CC[C@@H]2O (stereo partly shown) [fulvestrant] | – | 22 (±6) % | 28% | 2.24 µM | 6.95 µM | –
10 | CC#C[C@]1(O)CC[C@H]2[C@@H]3CCC4=CC(=O)CCC4=C3[C@@H](c3ccc(N(C)C)cc3)C[C@@]21C [mifepristone] | 9% | – | – | 13.5 µM | 11 µM | Max P4 inhibition (%) (± SD) [2]: 25 (±25) %
11 | C=C1C[C@@H]2[C@H](CC[C@]3(C)C(=O)CC[C@@H]23)[C@@]2(C)C=CC(=O)C=C12 [exemestane] | 63% | – | – | 0.557 µM | 0.309 µM | Max P4 inhibition (%) (± SD) [2]: 56 (±2) %
12 | C[C@]12CCC(=O)C=C1C=C[C@@H]1[C@@H]2CC[C@@]2(C)[C@H]1CC[C@@]21CCC(=O)O1 [canrenone] | – | 49 (±1) % | 69% | 7.51 µM | – | –
13 | C#C[C@]1(OC(C)=O)CC[C@H]2[C@@H]3CCC4=CC(=NO)CC[C@@H]4[C@H]3CC[C@@]21CC (mixture of isomers) [norgestimate] | – | 53 (±5) % | 79% | 0.918 µM | 8.05 µM | –
14 | C[C@]12CCC(=O)C=C1CC[C@@H]1[C@@H]2C(=O)C[C@]2(C)C(=O)CC[C@@H]12 [adrenosterone] | – | 24 (±3) % | – | 14.5 µM | 30.8 µM | Max amplitude (%) (± SD) [1, 5]: 26 (±2) %
15 | CC(=O)[C@@]1(O)CC[C@H]2[C@@H]3C[C@H](C)C4=CC(=O)C=C[C@]4(C)[C@@]3(F)[C@@H](O)C[C@@]21C [fluorometholone] | – | 29 (±12) % | 42% | 0.702 µM | 6.51 µM | –
16 | C[C@]12C[C@H](O)[C@H]3[C@@H](CCC4=CC(=O)CC[C@@]43C)[C@@H]1CC[C@@H]2C(=O)CO [corticosterone] | – | 49 (±5) % | 55% | 2.94 µM | 6.1 µM | –
17 | C#C[C@]1(O)CC[C@H]2[C@@H]3CCC4=CC(=O)CCC4=C3C=C[C@@]21CC [gestrinone] | 2% | 11 (±21) % | – | – | – | IC50 [2, 4]: 33.6 µM
18 | CC(=O)[C@H]1CC[C@H]2[C@@H]3C[C@H](C)C4=CC(=O)CC[C@]4(C)[C@H]3[C@@H](O)C[C@]12C [Medrysone] | – | 83 (±4) % | 104% | 0.23 µM | 0.471 µM | EC50 ([1]; increase in [Ca2+]i, dose-response 90 µM to 0.3 nM, read-out: EC50 (±SD)): 0.24 µM; IC50 ([2]; inhibition of P4-induced Ca2+ response, dose-response 90 µM to 0.3 nM, read-out: IC50 (±SD)): 0.569 µM
19 | C#C[C@]1(O)CC[C@H]2[C@@H]3CCC4=CC(=O)CC[C@]4(C)[C@H]3CC[C@@]21C [ethisterone] | 8% | 10 (±9) % | – | – | 5.13 µM | –
20 | CC12CCC(O)CC1=CCC1C2CCC2(C)C(C(=O)O)CCC12 (stereo not shown) [S67] | 80% | 86 (±3) % | – | – | – | EC50 [1, 3]: 0.108 µM; IC50 [2, 4]: 0.253 µM
21 | C[C@H](CCC(=O)O)[C@H]1CC[C@H]2[C@@H]3CC[C@@H]4C[C@H](O)CC[C@]4(C)[C@H]3CC[C@]12C [lithocholic acid] | 59% | – | – | – | – | Max P4 inhibition (%) (± SD) [2]: 32 (±10) %
22 | norgestrel-(-)-d | – | 3 (±5) % | – | – | 75.6 µM | Max amplitude (%) (± SD) [1, 5]: 5 (±3) %
